According to US10744179B2, “Method for treatment of inflammatory skin disorders with inhibitors of IL-36 proteolytic processing” (THE PROVOST, FELLOWS, FOUNDATION SCHOLARS, & THE OTHER …, priority 2014, dated 2020):
No end group written: not given here. *: point of attachment. CH2Cl = ClC*

Legend:
[1] = test system: IL-36β activation by activated neutrophil degranulates; experiment: IL-36β activation by PMA-activated neutrophil degranulates, HeLa IL-36R bioassay (cytokine ELISA); details: HeLa IL36R; for inhibition of IL-36β activation by neutrophil degranulates (peptide panel): FIG. 6, 29, 30, degranulates pre-incubated 30 min on ice with peptide titration (20-0.625 μM), then IL36β 2 h at 37°, IL-6 ELISA after 24 h; for inhibition of the activation of IL-36β by activated neutrophil degranulates: FIG. 5, IL-36β pre-incubated 2 h at 37° with degranulates ± PMSF (1 mM) or Cathepsin G inhibitor 1 (10 μM), cytokine ELISA after 24 h
Experimental: FIG. 29 are graphs showing Neutrophils degranulates pre-incubated for 30 min on ice in the presence or absence of a titration of peptide (20, 10, 5, 2.5, 1.25, 0.625 μM) followed by addition of IL36β for 2 h at 37°. HeLa^IL36R were stimulated for 24 h. IL-6 cytokine concentrations in culture supernatants were determined by ELISA. Note: Elast I-IV serves as negative controls for IL-36β assay.
Primary neutrophils were purified from donor human blood using the plasma-Percoll gradient method. Purity of cell preparations (>90%) was determined by Hematoxylin and Eosin staining of cytospins. To prepare degranulates, neutrophils (10^7 per treatment) were stimulated in the presence or absence of 50 nM PMA in HBSS/0.25% BSA for 1-3 h at 37° C. in a humidified atmosphere with 5% CO2. Supernatants were harvested and clarified by centrifugation. Degranulate aliquots were stored at −80°.
Reactions (40-100 μl final volume) were carried out in protease reaction buffer (50 mM Hepes, pH 7.4/75 mM NaCl/0.1% CHAPS) for 2 h at 37°.
Cytokines and chemokines were measured from cell culture supernatants using specific ELISA kits obtained from R&D systems (human IL-6, IL-8, CXCL1, MCP-1, IL-17C). Each assay was repeated a minimum of three times and all cytokine assays were carried out using triplicate samples from each culture.

[2] = test system: IL-36α activation by psoriatic skin eluates; experiment: IL-36α activation by psoriatic skin eluates, HeLa IL-36R bioassay (IL-8 ELISA); type: cell-based, human; details: FIG. 40c, IL-36α 500 pM pre-incubated 2 h at 37° with eluates ± cathepsin G inhibitor 1 (10 μM)
Experimental: (§1) Fixomull (2 cm×2 cm) adhesive tape strips were applied to a healthy or psoriatic skin, under firm pressure for 10 seconds. […] Sample eluates were stored at −80° C. Enzymatic assays and bioassays were setup using control and psoriatic eluates as described above.

[3] = test system: IL-36β activation by psoriatic skin eluates; experiment: IL-36β activation by psoriatic skin eluates, HeLa IL-36R bioassay (IL-8 ELISA); type: cell-based, human; details: FIG. 40c, IL-36β 500 pM pre-incubated 2 h at 37° with eluates ± cathepsin G inhibitor 1 (10 μM)
Experimental: as §1

[4] = test system: IL-36α activation by activated neutrophil degranulates; experiment: IL-36α activation by PMA-activated neutrophil degranulates, HeLa IL-36R bioassay (cytokine ELISA); type: cell-based, human; details: FIG. 5; IL-36α pre-incubated 2 h at 37° with degranulates ± PMSF (1 mM) or Cathepsin G inhibitor 1 (10 μM); HeLa IL36R, cytokine ELISA after 24 h

Row | Compound | inhibition of IL-36β activation by neutrophil degranulates (peptide panel) [1] | inhibition of the activation of IL-36β by activated neutrophil degranulates [1] | attenuation of IL-36α activation by psoriatic skin eluates [2] | attenuation of IL-36β activation by psoriatic skin eluates [3] | inhibition of the activation of IL-36α by activated neutrophil degranulates [4]
1 | Glu-Pro-Phe-CMK (Glu-Pro-Phe-CH2Cl) [EPF-CMK] | most potent inhibitors | – | – | – | –
2 | Ala-Phe-Leu-Phe-CMK (AFLF; not fully specified; C-terminal chloromethyl ketone; N-terminal Z; printed: Ala-Phe-Leu-Phe-) [AFLF-CMK] | most potent inhibitors | – | – | – | –
3 | FLF-CMK: Cathepsin G-inhibitory peptide Phe-Leu-Phe with chloromethyl ketone (CMK) at the C-terminus (Phe-Leu-Phe-CH2Cl) | most potent inhibitors | – | – | – | –
4 | CN(C(=O)c1cc2ccccc2cc1C(=O)C(c1cccc2ccccc12)P(=O)(O)O)C1CCN(C(=O)c2ccccc2)CC1 (stereo not drawn) [Cathepsin G Inhibitor I] | – | robustly inhibited | attenuated | attenuated | robustly inhibited
5 | O=S(=O)(F)Cc1ccccc1 [PMSF, phenylmethanesulfonylfluoride] | – | robustly inhibited | – | – | robustly inhibited
